Test results reported in patent US9932309B2, “2-oxo-3,4-dihydropyridine-5-carboxylates and their use” (UNIVERSITE DE LILLE 2 DROIT ET SANTE, priority 2014, dated 2018).
pEC50: −log10 of the molar value.

Columns and labels:
hTGR5 = molecular target: T1, hTGR5 (Homo sapiens, UniProt Q8TDU6); test: TGR5/CRE Luciferase Assay (hTGR5); assay type: cell-based; conditions: for pEC50: HEK 293 cells co-transfected with pCMV tag4b-TGR5h and pCRE TA-Luciferase, overnight incubation; for hTGR5 % trans: percentage of the 10 μM LCA value, HEK 293 cells transfected with hTGR5
T1 construct: expressed in transfected cells; host or cells: HEK293 cells, transiently co-transfected with the pCRE TA-Luciferase reporter
T1 sequence (Q8TDU6 1-330): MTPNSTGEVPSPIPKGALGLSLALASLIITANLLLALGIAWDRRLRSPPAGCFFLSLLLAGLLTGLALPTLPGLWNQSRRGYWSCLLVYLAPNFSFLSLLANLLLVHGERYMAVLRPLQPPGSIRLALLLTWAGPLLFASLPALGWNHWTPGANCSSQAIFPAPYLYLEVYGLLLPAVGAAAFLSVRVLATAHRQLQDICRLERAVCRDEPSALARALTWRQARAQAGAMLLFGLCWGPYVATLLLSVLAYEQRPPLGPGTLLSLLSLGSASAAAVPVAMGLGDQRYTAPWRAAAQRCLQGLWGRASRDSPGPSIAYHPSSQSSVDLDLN
How it was run: (§1)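 Transiently co-transfected HEK293 cells expressing human or mouse TGR5 plus a CRE-luciferase reporter were incubated overnight with rising compound concentrations in duplicate. Luminescence reported cAMP-driven expression; 10 μM lithocholic acid served as positive reference. Curves fitted to a 4-parameter logistic.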

mTGR5 = molecular target: T2, mTGR5 (Mus musculus, UniProt Q80SS6); test: TGR5/CRE Luciferase Assay (mTGR5); assay type: cell-based; conditions: for pEC50: HEK 293 cells co-transfected with pCMV AC6-TGR5m and pCRE TA-Luciferase, overnight incubation; for mTGR5 % trans: percentage of the 10 μM LCA value, HEK 293 cells transfected with mTGR5
T2 construct: expressed in transfected cells; host or cells: HEK293 cells, transiently co-transfected with the pCRE TA-Luciferase reporter
T2 sequence (Q80SS6 1-329): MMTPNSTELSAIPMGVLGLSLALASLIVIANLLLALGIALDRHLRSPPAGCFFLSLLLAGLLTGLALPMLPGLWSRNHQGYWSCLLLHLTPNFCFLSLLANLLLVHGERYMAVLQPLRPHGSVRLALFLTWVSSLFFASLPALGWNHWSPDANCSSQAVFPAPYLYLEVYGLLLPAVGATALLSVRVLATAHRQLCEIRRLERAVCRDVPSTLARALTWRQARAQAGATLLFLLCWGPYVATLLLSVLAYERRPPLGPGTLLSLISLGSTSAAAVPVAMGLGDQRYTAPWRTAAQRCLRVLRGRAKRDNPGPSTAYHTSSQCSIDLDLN
How it was run: as §1

Row | SMILES | pEC50 (hTGR5) | hTGR5 % trans (hTGR5) [%] | pEC50 (mTGR5) | mTGR5 % trans (mTGR5) [%]
1 | CC1=C(C(=O)OCc2ccc(C)cc2)C(c2ccc(Cl)cc2)CC(=O)N1C (stereo not shown) [Example 79, p-tolylmethyl 4-(4-chlorophenyl)-1,6-dimethyl-2-oxo-3,4-dihydropyridine-5-carboxylate] | 6.15 | 80 | 6.15 | 73
2 | CC1=C(C(=O)OCc2ccc(C(F)(F)F)cc2)C(c2ccc(Cl)cc2)CC(=O)N1C (stereo not shown) [Example 80, [4-(trifluoromethyl)phenyl]methyl 4-(4-chlorophenyl)-1,6-dimethyl-2-oxo-3,4-dihydropyridine-5-carboxylate] | 5.82 | 60 | 5.85 | 67
3 | CC1=C(C(=O)OCc2c(F)cccc2F)C(c2ccc(Cl)cc2)CC(=O)N1C (stereo not shown) [Example 82, (2,6-difluorophenyl)methyl 4-(4-chlorophenyl)-1,6-dimethyl-2-oxo-3,4-dihydropyridine-5-carboxylate] | 6.15 | 74 | 5.82 | 59
4 | COc1ccc(COC(=O)C2=C(C)N(C)C(=O)CC2c2ccc(Cl)cc2)cc1OC (stereo not shown) [Example 83, (3,4-dimethoxyphenyl)methyl 4-(4-chlorophenyl)-1,6-dimethyl-2-oxo-3,4-dihydropyridine-5-carboxylate] | 5.92 | 69 | 6.40 | 88
5 | COCCN1C(=O)CC(c2ccc(Cl)cc2)C(C(=O)OCc2ccccc2C(F)(F)F)=C1C (stereo not shown) [Example 90, [2-(trifluoromethyl)phenyl]methyl 4-(4-chlorophenyl)-1-(2-methoxyethyl)-6-methyl-2-oxo-3,4-dihydropyridine-5-carboxylate] | 5.96 | 57 | 5.89 | 34
6 | COCCN1C(=O)CC(c2ccc(Cl)cc2)C(C(=O)OCc2cccc(C(F)(F)F)c2)=C1C (stereo not shown) [Example 91, [3-(trifluoromethyl)phenyl]methyl 4-(4-chlorophenyl)-1-(2-methoxyethyl)-6-methyl-2-oxo-3,4-dihydropyridine-5-carboxylate] | 6.30 |  | 6.15 | 
7 | COCCN1C(=O)CC(c2ccc(Cl)cc2)C(C(=O)OCc2ccccc2C#N)=C1C (stereo not shown) [Example 93, (2-cyanophenyl)methyl 4-(4-chlorophenyl)-1-(2-methoxyethyl)-6-methyl-2-oxo-3,4-dihydropyridine-5-carboxylate] | 6.22 | 58 | 6.10 | 53
8 | COCCN1C(=O)CC(c2ccc(Cl)cc2)C(C(=O)OCc2cccc(C#N)c2)=C1C (stereo not shown) [Example 94, (3-cyanophenyl)methyl 4-(4-chlorophenyl)-1-(2-methoxyethyl)-6-methyl-2-oxo-3,4-dihydropyridine-5-carboxylate] | 6.22 | 61 | 6.40 | 65
9 | COCCN1C(=O)CC(c2ccc(Cl)cc2)C(C(=O)OCc2cccc(C(=O)OC)c2)=C1C (stereo not shown) [Example 96, (3-methoxycarbonylphenyl)methyl 4-(4-chlorophenyl)-1-(2-methoxyethyl)-6-methyl-2-oxo-3,4-dihydropyridine-5-carboxylate] | 5.96 | 63 | 6.22 | 83
10 | COCCN1C(=O)CC(c2ccc(Cl)cc2)C(C(=O)OCc2ccc(C)cc2)=C1C (stereo not shown) [Example 100, p-tolylmethyl 4-(4-chlorophenyl)-1-(2-methoxyethyl)-6-methyl-2-oxo-3,4-dihydropyridine-5-carboxylate] | 6.22 | 72 | 6.40 | 89
11 | COCCN1C(=O)CC(c2ccc(Cl)cc2)C(C(=O)OCc2cccc(OC)c2)=C1C (stereo not shown) [Example 103, (3-methoxyphenyl)methyl 4-(4-chlorophenyl)-1-(2-methoxyethyl)-6-methyl-2-oxo-3,4-dihydropyridine-5-carboxylate] | 6.30 | 85 | 6.40 | 95

Results, then the molecule that gave them:

Row | pEC50 (hTGR5) | hTGR5 % trans (hTGR5) [%] | pEC50 (mTGR5) | mTGR5 % trans (mTGR5) [%] | SMILES
12 | 6.30 | 86 | 5.89 | 62 | CC1=C(C(=O)OCc2ccc(F)cc2Cl)C(c2ccc(Cl)cc2)CC(=O)N1C (stereo not shown) [Example 81, (2-chloro-4-fluoro-phenyl)methyl 4-(4-chlorophenyl)-1,6-dimethyl-2-oxo-3,4-dihydropyridine-5-carboxylate]
13 | 6.40 | 71 | 6.30 | 71 | COCCN1C(=O)CC(c2ccc(Cl)cc2)C(C(=O)OCc2ccccc2F)=C1C (stereo not shown) [Example 84, (2-fluorophenyl)methyl 4-(4-chlorophenyl)-1-(2-methoxyethyl)-6-methyl-2-oxo-3,4-dihydropyridine-5-carboxylate]
14 | 6.40 | 71 | 6.40 | 82 | COCCN1C(=O)CC(c2ccc(Cl)cc2)C(C(=O)OCc2ccc(F)cc2)=C1C (stereo not shown) [Example 86, (4-fluorophenyl)methyl 4-(4-chlorophenyl)-1-(2-methoxyethyl)-6-methyl-2-oxo-3,4-dihydropyridine-5-carboxylate]
15 | 6.70 | 75 | 6.40 | 91 | COCCN1C(=O)CC(c2ccc(Cl)cc2)C(C(=O)OCc2cccc(Cl)c2)=C1C (stereo not shown) [Example 88, (3-chlorophenyl)methyl 4-(4-chlorophenyl)-1-(2-methoxyethyl)-6-methyl-2-oxo-3,4-dihydropyridine-5-carboxylate]
16 | 6.40 | 65 | 6.52 | 84 | COCCN1C(=O)CC(c2ccc(Cl)cc2)C(C(=O)OCc2ccc(Cl)cc2)=C1C (stereo not shown) [Example 89, (4-chlorophenyl)methyl 4-(4-chlorophenyl)-1-(2-methoxyethyl)-6-methyl-2-oxo-3,4-dihydropyridine-5-carboxylate]
17 | 6.70 | 78 | 6.52 | 76 | COCCN1C(=O)CC(c2ccc(Cl)cc2)C(C(=O)OCc2ccc(C#N)cc2)=C1C (stereo not shown) [Example 95, (4-cyanophenyl)methyl 4-(4-chlorophenyl)-1-(2-methoxyethyl)-6-methyl-2-oxo-3,4-dihydropyridine-5-carboxylate]
18 | 6.40 | 76 | 6.40 | 76 | COCCN1C(=O)CC(c2ccc(Cl)cc2)C(C(=O)OCc2ccc(C(=O)OC)cc2)=C1C (stereo not shown) [Example 97, (4-methoxycarbonylphenyl)methyl 4-(4-chlorophenyl)-1-(2-methoxyethyl)-6-methyl-2-oxo-3,4-dihydropyridine-5-carboxylate]
19 | 6.52 |  | 6.30 |  | COCCN1C(=O)CC(c2ccc(Cl)cc2)C(C(=O)OCc2ccccc2C)=C1C (stereo not shown) [Example 98, o-tolylmethyl 4-(4-chlorophenyl)-1-(2-methoxyethyl)-6-methyl-2-oxo-3,4-dihydropyridine-5-carboxylate]
20 | 6.70 | 75 | 6.70 | 84 | COCCN1C(=O)CC(c2ccc(Cl)cc2)C(C(=O)OCc2c(C)cc(C)cc2C)=C1C (stereo not shown) [Example 101, (2,4,6-trimethylphenyl)methyl 4-(4-chlorophenyl)-1-(2-methoxyethyl)-6-methyl-2-oxo-3,4-dihydropyridine-5-carboxylate]
